Results published in US20050050594A1, “Tryptophan synthase as a site of herbicide action” (priority 1999, published 2005).

Legend:
[1] = biological target: T1, Salmonella typhimurium tryptophan synthase holoenzyme (α2β2), TSα reaction (Salmonella typhimurium, UniProt P00929); experiment: Inhibition of tryptophan synthase by the TSα reaction, microtiter kinetic coupled enzyme assay; type: biochemical
T1 construct: made in house; host or cells: E. coli strain CB149pSTB7
Outline: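 S. typhimurium α2β2 holoenzyme (~1.5 e.u.) in 50 mM Tris-Cl pH 7.8 with 60 mM serine, started with 100 μM IGP (1.5-2× Km), 37° C. Glyceraldehyde-3-P formation coupled to yeast GAPDH/1.6 mM NAD+, read at 340 nm. Inhibitor at 100 μM or 1:1 dilutions; some preincubated 24 h before IGP.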

Arabidopsis thaliana = experiment: Herbicidal activity and tryptophan reversal on Arabidopsis grown on agar medium; type: in vivo; parameters: key: 0 - no effect; 9 - total kill; C - chlorotic seedlings 4-6 days after treatment
Method: In this experiment, TS inhibitors were tested on Arabidopsis thaliana grown Murashige minimal organics medium, (obtained from Life Technologies, Grand Island, N.Y.), containing 0.7% agar. Compounds were tested at different concentrations to assess their herbicidal activity.

T1 sequence (P00929 whole entry): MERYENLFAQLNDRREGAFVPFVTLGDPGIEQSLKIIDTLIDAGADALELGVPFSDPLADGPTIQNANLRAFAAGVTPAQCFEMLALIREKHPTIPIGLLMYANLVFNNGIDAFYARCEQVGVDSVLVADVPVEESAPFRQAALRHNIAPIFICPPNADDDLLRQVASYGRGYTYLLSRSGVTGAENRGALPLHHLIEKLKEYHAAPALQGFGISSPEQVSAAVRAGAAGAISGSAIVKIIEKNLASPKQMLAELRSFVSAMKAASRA
T1 sequence (P0A2K1 2-397, further chain): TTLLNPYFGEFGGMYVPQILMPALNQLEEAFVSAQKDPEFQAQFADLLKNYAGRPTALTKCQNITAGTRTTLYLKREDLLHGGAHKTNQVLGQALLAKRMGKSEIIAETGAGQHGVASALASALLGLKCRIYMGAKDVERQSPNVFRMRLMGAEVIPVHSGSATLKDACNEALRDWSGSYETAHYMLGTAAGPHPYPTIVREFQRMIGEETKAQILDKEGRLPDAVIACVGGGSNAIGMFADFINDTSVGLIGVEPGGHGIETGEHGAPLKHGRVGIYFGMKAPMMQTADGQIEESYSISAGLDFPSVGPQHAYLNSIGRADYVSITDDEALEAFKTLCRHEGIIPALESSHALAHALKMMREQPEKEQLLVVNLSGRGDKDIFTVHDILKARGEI

O=P(O)(O)CCCCSc1ccccc1O [Compound 22, {4-[(o-hydroxyphenyl)thio]butyl}-phosphonic acid]
IC50 ([1]; I50 TS, TSα reaction of Salmonella holoenzyme): 130 nM | IC50 ([1]; TSα activity (Salmonella enzyme) I50): 130 nM | herbicidal injury rating (Arabidopsis thaliana; herbicide 7.8 μM): 0 | herbicidal injury rating (Arabidopsis thaliana; herbicide 16 μM): 1 | herbicidal injury rating (Arabidopsis thaliana; herbicide 31 μM): 1C | herbicidal injury rating (Arabidopsis thaliana; herbicide 63 μM): 3C | herbicidal injury rating (Arabidopsis thaliana; herbicide 125 μM): 3C | herbicidal injury rating (Arabidopsis thaliana; herbicide 250 μM): 3C | herbicidal injury rating (Arabidopsis thaliana; herbicide 500 μM): 5C | herbicidal injury rating (Arabidopsis thaliana; herbicide 1000 μM): 6C | herbicidal rating (Arabidopsis thaliana; herbicide 7.8 mM, no Trp): 5 | herbicidal rating (Arabidopsis thaliana; herbicide 16 mM, no Trp): 5 | herbicidal rating (Arabidopsis thaliana; herbicide 31 mM + 100 μM Trp): 0 | herbicidal rating (Arabidopsis thaliana; herbicide 31 mM, no Trp): 6 | herbicidal rating (Arabidopsis thaliana; herbicide 63 mM + 100 μM Trp): 1 | herbicidal rating (Arabidopsis thaliana; herbicide 63 mM, no Trp): 6 | herbicidal rating (Arabidopsis thaliana; herbicide 125 mM + 100 μM Trp): 3 | herbicidal rating (Arabidopsis thaliana; herbicide 125 mM, no Trp): 6 | herbicidal rating (Arabidopsis thaliana; herbicide 250 mM + 100 μM Trp): 5 | herbicidal rating (Arabidopsis thaliana; herbicide 250 mM, no Trp): 6 | herbicidal rating (Arabidopsis thaliana; herbicide 500 mM + 100 μM Trp): 3 | herbicidal rating (Arabidopsis thaliana; herbicide 500 mM, no Trp): 6 | herbicidal rating (Arabidopsis thaliana; herbicide 1000 mM + 100 μM Trp): 3 | herbicidal rating (Arabidopsis thaliana; herbicide 1000 mM, no Trp): 7
